Reference: patent US20140005181A1, “SMALL MOLECULE ANTAGONISTS OF THE APELIN RECEPTOR FOR THE TREATMENT OF DISEASE” (Sanford-Burnham Medical Research Institute, priority 2012, published 2014)
“And” between values parts separate entries of the source, which are not always exact repeats. Equal values may be shown once. Read-outs that look alike come from different tables or passages of the source.

Columns and labels:
[1] = Hepatic toxicity / cytotoxicity; settings: human, hepatocytes
human hepatocytes = assay: Hepatic toxicity / cytotoxicity; settings: Table 1
[2] = tested on: benzodiazepinone receptors; assay: PDSP GPCR binding assay panel
[3] = Hepatic microsome stability, mouse
kappa opioid receptor = biological target: T1, kappa opioid receptor (Homo sapiens, UniProt P41145); assay: PDSP GPCR binding assay panel
T1 construct: Psychoactive Drug Screening Program (PDSP), University of North Carolina
T1 sequence (P41145 whole entry): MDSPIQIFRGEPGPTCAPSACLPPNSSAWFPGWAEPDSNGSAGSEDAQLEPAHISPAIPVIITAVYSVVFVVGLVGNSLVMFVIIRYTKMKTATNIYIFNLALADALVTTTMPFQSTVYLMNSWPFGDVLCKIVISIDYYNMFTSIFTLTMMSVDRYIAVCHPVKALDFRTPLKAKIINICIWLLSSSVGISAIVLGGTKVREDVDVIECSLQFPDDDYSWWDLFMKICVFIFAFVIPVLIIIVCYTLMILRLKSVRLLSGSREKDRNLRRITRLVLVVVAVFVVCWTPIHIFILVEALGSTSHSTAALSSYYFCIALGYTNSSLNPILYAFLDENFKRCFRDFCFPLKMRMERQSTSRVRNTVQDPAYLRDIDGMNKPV

Plasma stability, human = assay type: in vitro ADME; settings: Plasma:1x PBS pH 7.4 1:1, 3 hrs
[4] = Stability in 1x PBS pH 7.4 (plasma stability assay); assay type: physicochemical; settings: 1x PBS pH 7.4, 3 hrs
APJ = biological target: T2, APJ (Homo sapiens, UniProt P35414); assay: APJ receptor internalization assay; assay type: cell-based; settings: fixed apelin-13 6.23 nM
T2 sequence (P35414 1-380): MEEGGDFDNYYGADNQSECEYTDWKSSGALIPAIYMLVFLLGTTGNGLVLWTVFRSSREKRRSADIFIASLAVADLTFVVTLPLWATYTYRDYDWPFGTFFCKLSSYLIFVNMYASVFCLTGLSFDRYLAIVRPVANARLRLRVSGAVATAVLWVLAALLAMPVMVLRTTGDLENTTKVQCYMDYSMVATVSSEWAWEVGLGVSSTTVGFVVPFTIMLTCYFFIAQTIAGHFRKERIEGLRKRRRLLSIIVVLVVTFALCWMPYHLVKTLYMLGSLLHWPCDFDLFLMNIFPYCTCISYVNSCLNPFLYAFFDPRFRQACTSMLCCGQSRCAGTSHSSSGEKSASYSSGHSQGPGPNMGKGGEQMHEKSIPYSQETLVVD
Method: This graph depicts the mean percent inhibition (±SEM) of apelin-13 mediated receptor internalization. Representative of an experiment that was repeated three times with each data point performed in triplicate. Curve fit analysis was performed using nonlinear regression with a 4-point logistic fit (GraphPad Prism5).

[5] = Hepatic microsome stability, human
PAMPA permeability = assay type: in vitro ADME; settings: for Papp: PAMPA, read-out: PAMPA Pe
Method: The PAMPA (Parallel Artificial Membrane Permeability Assay) assay is used as an in vitro model of passive, transcellular permeability. An artificial membrane immobilized on a filter is placed between a donor and acceptor compartment. At the start of the test, drug is introduced in the donor compartment. Following the permeation period, the concentration of drug in the donor and acceptor compartments is measured using UV spectroscopy.

O=C(Oc1coc(CSc2ncccn2)cc1=O)c1ccc([N+](=O)[O-])cc1 [Compound 6, 4-OXO-6-((PYRIMIDIN-2-YLTHIO)METHYL)-4H-PYRAN-3-YL-4-NITROBENZOATE]
CC50 [1]: > 50 µM | Cytotoxicity (human hepatocytes): >50 µM | binding activity at benzodiazepinone receptors [2]: significant activity | Plasma Stability (% Remaining @3 hrs) (Plasma stability, mouse; Mouse, Plasma:1x PBS pH 7.4 1:1, 3 hrs): 0.88% | Plasma Stability (Plasma stability, mouse; Table 1, species and matrix not given): 42.2% | Hepatic Microsome Stability ([3]; Table 1, species not given, equals the mouse value): 4.9% | Hepatic Microsome Stability Mouse ([3]; mouse): 4.89 | % remaining at 60 min in mouse liver homogenates ([3]; mouse, 60 min): 4.9% | binding activity at kappa opioid receptor (kappa opioid receptor): significant activity | Plasma Stability (% Remaining @3 hrs) (Plasma stability, human): 0.26% | solubility (Aqueous solubility; 1x PBS, pH 7.4, aqueous buffer): 3.6 µg/mL and 9.3 µM | Aqueous Solubility pH 7.4 (Aqueous solubility; Table 1, pH 7.4): 25.5 μg/mL | solubility (Aqueous solubility; aqueous media, pH 5, aqueous buffer): 3 µg/mL and 7.8 µM | solubility (Aqueous solubility; aqueous media, pH 6.2, aqueous buffer): 3.6 µg/mL and 9.3 µM | solubility (Aqueous solubility; aqueous media, pH 7.4, aqueous buffer): 9.8 µg/mL and 25 µM | Plasma Stability (% Remaining @3 hrs), 1x PBS pH 7.4 ([4]; first value (Human position)): 46.97% | Plasma Stability (% Remaining @3 hrs), 1x PBS pH 7.4 ([4]; second value (Mouse position)): 42.18% | Plasma Protein Binding (mouse) (Plasma protein binding; mouse): 99.1% | detection in the plasma protein binding assay (Plasma protein binding; species not given, 18 h incubation): undetectable | antagonism of apelin-13 induced APJ receptor internalization (APJ): antagonized the ability of apelin-13 to induce APJ receptor internalization | Hepatic Microsome Stability Human ([5]; Human): 4.19 | % remaining at 60 min in human liver homogenates ([5]; human, 60 min): 4.2% | PAMPA Pe (×10^−6 cm/s) (PAMPA permeability; Donor pH 7.4, Acceptor pH 7.4): 271 ×10^−6 cm/s | Papp (PAMPA permeability; Donor pH 5.0, Acceptor pH 7.4): 195 ×10⁻⁶ cm/s | Papp (PAMPA permeability; Donor pH 6.2, Acceptor pH 7.4): 240 ×10⁻⁶ cm/s | Permeability (PAMPA) pH 7.4 (PAMPA permeability; Table 1, pH 7.4): 271.0 × 10^−6 cm/s
